Results as given in patent publication US9352013B2, “Uses of bremelanotide in therapy for female sexual dysfunction” (Palatin Technologies, Inc., priority 2012, dated 2016).

Assays:
[1] = tested on: premenopausal females with FSAD and/or HSDD; experiment: Example 1: placebo-controlled at-home trial of subcutaneous bremelanotide, efficacy (SSEs, FSFI, FSDS-DAO); assay type: in vivo, human
Protocol: A multi-centered, placebo-controlled, randomized, parallel group trial with fixed dose levels and designed to identify appropriate doses of bremelanotide administered by subcutaneous injection in premenopausal females with FSAD and/or HSDD, under the conditions of home use, was conducted. Subjects received a single dose of placebo (subject-blinded) in-clinic followed by 4 weeks of subject-blinded placebo treatment at home (subjects self-administered treatment as needed). Subjects who continued to qualify for the trial then received 2 single in-clinic doses of randomized treatment (double-blind; approximately one week apart), followed by 12 weeks of double-blind treatment at home (subjects self-administered treatment as needed).
Subjects were randomized (1:1:1:1) to one of four study treatment groups (placebo or doses with 0.75, 1.25, or 1.75 mg net weight bremelanotide). Randomization occurred immediately prior to the first in-clinic dose of double-blind treatment. Study drug and placebo was provided as pre-filled syringes in 0.3 mL volume, with subjects instructed on self-administration into the anterior thigh or abdomen.
Enrolled subjects were premenopausal women who met the diagnostic criteria for FSAD, HSDD, or mixed FSAD/HSDD, utilizing a diagnostic screening guide including categorization of the sexual dysfunction as both acquired (vs. lifelong) and generalized (vs. situational). Subjects enrolled had previously been sexually “functional;” that is, experienced sexual arousal during sexual activity and/or a normal level of desire at some point in the past for a period of at least 2 years.
Enrolled subjects were provided with an electronic diary system (eDiary) with instructions to complete an FSEP-R questionnaire with each sexual encounter. At selected in-clinic visits, subjects completed other assessment questionnaires, including SIDI-F, FSDS-DAO, FSFI, GAQ and WITS-9. In addition, various vital sign measures were conducted and blood and urine samples collected at selected in-clinic visits.
The measurement period was defined as the number of events during the last four weeks of treatment minus the number of events during the baseline period, with outcomes reported for pooled results of women taking the two highest bremelanotide dose levels versus placebo.
The FSFI is a 19-item questionnaire which provides for an additional measurement of changes over a longer recall period. • FSFI total score improvement (mean change of 3.55 vs. 1.88, p=0.0017) • Reduced associated distress related to sexual dysfunction, as measured by the Female Sexual Distress Scale-DAO (FSDS-DAO). The FSDS-DAO 15-item questionnaire is designed to assess and quantify the change in personal distress associated with FSD. • FSDS-DAO total score improvement (mean change of −11.1 vs. −6.8, p=0.036).

[2] = tested on: healthy adult female subjects; experiment: Phase 1 dose escalation, subcutaneous: vaginal photoplethysmography (vaginal pulse amplitude); assay type: in vivo, human
Protocol: In a double-blind, placebo-controlled, single dose, dose escalation Phase 1 study to determine the maximum tolerated dose in healthy adult female subjects, doses of from 0.3 to 5.0 mg (0.3, 1.0, 3.0 and 5.0 mg) of bremelanotide were administered by subcutaneous injection. However, this study specifically excluded women with a diagnosis of FSD, and thus could not determine an effective dose for treatment of FSD. The study did employ a measure of pharmacodynamic effect, defined as an increase of sexual arousal response in the presence of visual sexual stimulation as measured by vaginal blood flow with vaginal photoplethysmography (using a Geer gauge device), which measures vaginal pulse amplitude.

[3] = Pharmacokinetics of subcutaneous administration in healthy adult males; assay type: in vivo; conditions: male, human, plasma, sc, read-out: Median Tmax
From the text: Results of Tmax values were compared between subcutaneous administration (SC) and intranasal (IN) administration of various doses of bremelanotide, as shown in FIG. 1.

[4] = Adverse events with single-dose SC administration (Trials-14, -06, -10); assay type: in vivo, human
Protocol: Subcutaneous dosing was tested in 5 Phase 1 trials (3 in females, 2 in males) and one Phase 2 trial (males). The most common adverse events associated with single-dose SC bremelanotide administration (Trials-14, -06, and -10) were somnolence (30%), flushing (15%), nausea (19%), and vomiting (10%).

[5] = Subcutaneous trial in males: vomiting; assay type: in vivo, human; conditions: males
Protocol: In a trial in males, 1 of 6 subjects at the 5-mg dose level, 1 of 6 subjects at the 7.5 mg dose level, and 3 of 6 subjects at the 10-mg dose level experienced vomiting that was mild or moderate in intensity and delayed 6 to 15 hours.

[6] = Single SC doses in male subjects with ED and preexisting hypertension: tolerability; assay type: in vivo, human; conditions: single subcutaneous doses of 4 and 6 mg
female rats = conditions: cited from earlier work
[7] = tested on: women diagnosed with sexual arousal disorder; conditions: single intranasal dose of 20 mg; cited from earlier work
[8] = tested on: men diagnosed with erectile dysfunction; conditions: subcutaneous injection of either a 4 or 6 mg dose; cited from earlier work

Compound: CCCC[C@H](NC(C)=O)C(=O)N[C@H]1CC(=O)NCCCC[C@@H](C(=O)O)NC(=O)[C@H](Cc2c[nH]c3ccccc23)NC(=O)[C@H](CCCNC(=N)N)NC(=O)[C@@H](Cc2ccccc2)NC(=O)[C@H](Cc2c[nH]cn2)NC1=O [bremelanotide, Ac-Nle-cyclo(-Asp-His-D-Phe-Arg-Trp-Lys)-OH]
- Frequency of Satisfying Sexual Events (SSEs), mean at end of study ([1]; pooled 1.25 mg and 1.75 mg SC, from 1.6 at baseline, placebo 1.7 to 1.9): 2.4
- FSFI total score improvement, mean change from baseline to end of study ([1]; pooled 1.25 mg and 1.75 mg SC, placebo 1.88): 3.55
- FSDS-DAO total score improvement, mean change from baseline to end of study ([1]; pooled 1.25 mg and 1.75 mg SC, placebo −6.8): −11.1
- Increase in SSEs ([1]; pooled 1.25 mg and 1.75 mg SC, versus 12% with placebo): 50%
- Efficacy in premenopausal women with FSDs ([1]; self-administered at home at 1.25 and 1.75 mg SC): effective in decreasing distress, increasing arousal and desire, and increasing the number of SSEs
- Percentage of women with end-of-study FSFI and FSDS-DAO total score levels above 26.5 and 18 ([1]; versus placebo, exploratory analysis): higher percentage
- Pharmacodynamic effect (vaginal pulse amplitude with visual sexual stimulation) ([2]; 0.3 or 1.0 mg SC, compared to placebo or baseline): no apparent pharmacodynamic effect
- Pharmacodynamic effect (vaginal pulse amplitude with visual sexual stimulation) ([2]; 3 and 5 mg SC): statistically significant pharmacodynamic effect
- Subcutaneous dose at which a pharmacodynamics effect was seen ([2]; normal female volunteers): ≥ 3 mg
- Tmax [3]: 30 to 60 min
- Adverse event: flushing [4]: 15%
- Adverse event: nausea [4]: 19%
- Adverse event: somnolence [4]: 30%
- Adverse event: vomiting [4]: 10%
- Subjects who experienced vomiting ([5]; 7.5 mg dose level): 1 of 6
- Subjects who experienced vomiting ([5]; 5-mg dose level): 1 of 6
- Subjects who experienced vomiting ([5]; 10-mg dose level): 3 of 6
- Tolerability [6]: improved tolerability
- Effect on appetitive sexual behavior (female rats): selective pharmacological effect on appetitive sexual behavior was observed
- Dopamine release in the medial preoptic area (female rats; subcutaneous injections): increasing dopamine release
- Immediate-early gene product Fos in limbic and hypothalamic structures (female rats; subcutaneous injections): inducing
- Vaginal pulse amplitude measures compared to placebo [7]: without statistically relevant differences
- Erectile response compared to placebo [8]: statistically significant erectile response
